Measured values: ChEMBL document CHEMBL1909046, “DrugMatrix in vitro pharmacology data”

Key:
Estrogen receptor beta = Estrogen receptor beta (Homo sapiens, UniProt Q92731); conditions: sf9; also: in other assays of this panel Not Active means under 50% inhibition at 10 µM
[1] = biological target: T1, Alpha-1D adrenergic receptor (Homo sapiens, UniProt P25100); type: cell membranes, HEK293, Membrane; conditions: hek293; also: in other assays of this panel Not Active means under 50% inhibition at 10 µM
T1 sequence (P25100 whole entry): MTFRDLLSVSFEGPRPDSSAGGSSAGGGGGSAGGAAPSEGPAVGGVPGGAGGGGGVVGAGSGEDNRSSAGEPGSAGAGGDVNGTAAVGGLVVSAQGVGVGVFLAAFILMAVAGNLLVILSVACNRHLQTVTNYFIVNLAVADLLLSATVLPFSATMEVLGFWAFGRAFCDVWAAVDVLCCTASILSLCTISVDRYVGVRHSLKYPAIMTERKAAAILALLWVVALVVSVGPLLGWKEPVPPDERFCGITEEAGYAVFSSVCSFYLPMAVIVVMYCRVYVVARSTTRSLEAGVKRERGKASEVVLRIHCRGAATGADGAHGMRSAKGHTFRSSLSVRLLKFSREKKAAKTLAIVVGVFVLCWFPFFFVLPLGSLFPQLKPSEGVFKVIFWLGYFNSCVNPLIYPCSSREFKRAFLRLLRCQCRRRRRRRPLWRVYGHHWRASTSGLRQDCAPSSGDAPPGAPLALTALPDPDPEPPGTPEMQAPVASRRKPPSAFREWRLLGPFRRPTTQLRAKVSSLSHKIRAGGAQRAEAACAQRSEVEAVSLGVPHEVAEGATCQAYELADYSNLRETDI

Cytochrome P450 3A4 = Cytochrome P450 3A4 (Homo sapiens, UniProt P08684); conditions: bti-tn-5b1-4; also: in other assays of this panel Not Active means under 50% inhibition at 10 µM
Sequence of Cytochrome P450 3A4 (P08684 whole entry): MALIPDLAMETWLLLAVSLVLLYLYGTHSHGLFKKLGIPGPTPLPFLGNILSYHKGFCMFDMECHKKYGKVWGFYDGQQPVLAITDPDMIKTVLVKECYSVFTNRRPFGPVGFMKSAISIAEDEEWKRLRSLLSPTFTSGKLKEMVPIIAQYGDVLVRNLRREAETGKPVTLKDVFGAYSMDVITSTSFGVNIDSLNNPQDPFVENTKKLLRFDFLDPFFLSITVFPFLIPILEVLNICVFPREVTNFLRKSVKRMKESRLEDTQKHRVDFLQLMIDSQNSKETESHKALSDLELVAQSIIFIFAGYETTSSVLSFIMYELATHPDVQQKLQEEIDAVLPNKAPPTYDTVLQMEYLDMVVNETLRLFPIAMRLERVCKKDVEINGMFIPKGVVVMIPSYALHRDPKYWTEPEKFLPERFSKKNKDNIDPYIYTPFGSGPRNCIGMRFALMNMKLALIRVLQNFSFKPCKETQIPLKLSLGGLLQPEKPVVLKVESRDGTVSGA

[2] = biological target: T2, Alpha-2C adrenergic receptor (Homo sapiens, UniProt P18825); experiment: DRUGMATRIX: Adrenergic Alpha-2C radioligand binding (ligand: [3H] MK-912); type: cell membranes, Sf9, Membrane; conditions: sf9
T2 sequence (P18825 whole entry): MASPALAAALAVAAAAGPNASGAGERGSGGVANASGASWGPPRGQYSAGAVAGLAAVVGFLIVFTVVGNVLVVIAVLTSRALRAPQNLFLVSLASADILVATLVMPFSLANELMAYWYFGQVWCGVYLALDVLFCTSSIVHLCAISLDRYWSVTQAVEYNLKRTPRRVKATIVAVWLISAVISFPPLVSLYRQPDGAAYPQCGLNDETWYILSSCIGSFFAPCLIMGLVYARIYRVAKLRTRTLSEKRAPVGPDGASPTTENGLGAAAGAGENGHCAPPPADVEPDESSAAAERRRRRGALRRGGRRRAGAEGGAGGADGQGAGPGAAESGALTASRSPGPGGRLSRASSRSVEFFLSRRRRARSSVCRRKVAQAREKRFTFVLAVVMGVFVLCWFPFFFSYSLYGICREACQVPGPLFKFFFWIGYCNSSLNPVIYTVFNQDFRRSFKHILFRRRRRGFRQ

[3] = biological target: T3, Muscarinic acetylcholine receptor M5 (Homo sapiens, UniProt P08912); type: cell membranes, CHO-K1, Membrane; conditions: cho-k1; also: in other assays of this panel Not Active means under 50% inhibition at 10 µM
T3 sequence (P08912 whole entry): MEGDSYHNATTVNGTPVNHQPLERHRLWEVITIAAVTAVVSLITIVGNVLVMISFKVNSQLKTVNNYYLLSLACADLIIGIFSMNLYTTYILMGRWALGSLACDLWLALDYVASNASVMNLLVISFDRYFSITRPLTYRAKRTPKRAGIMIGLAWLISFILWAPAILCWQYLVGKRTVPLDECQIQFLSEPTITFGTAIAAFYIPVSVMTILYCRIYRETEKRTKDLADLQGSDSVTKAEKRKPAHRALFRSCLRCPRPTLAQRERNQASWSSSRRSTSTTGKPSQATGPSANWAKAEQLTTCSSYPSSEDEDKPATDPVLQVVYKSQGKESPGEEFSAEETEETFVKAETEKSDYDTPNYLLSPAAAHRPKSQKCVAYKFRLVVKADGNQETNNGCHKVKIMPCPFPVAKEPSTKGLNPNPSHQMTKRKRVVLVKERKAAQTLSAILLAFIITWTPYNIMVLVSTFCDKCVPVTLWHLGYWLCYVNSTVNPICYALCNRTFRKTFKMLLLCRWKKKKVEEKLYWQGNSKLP

[4] = biological target: T4, 5-hydroxytryptamine receptor 2C (Homo sapiens, UniProt P28335); experiment: DRUGMATRIX: Serotonin (5-Hydroxytryptamine) 5-HT2C radioligand binding (ligand: [3H] Mesulergine); type: cell membranes, CHO-K1, Membrane; conditions: cho-k1; Not Active = under 50% inhibition at 10 µM
T4 sequence (P28335 whole entry): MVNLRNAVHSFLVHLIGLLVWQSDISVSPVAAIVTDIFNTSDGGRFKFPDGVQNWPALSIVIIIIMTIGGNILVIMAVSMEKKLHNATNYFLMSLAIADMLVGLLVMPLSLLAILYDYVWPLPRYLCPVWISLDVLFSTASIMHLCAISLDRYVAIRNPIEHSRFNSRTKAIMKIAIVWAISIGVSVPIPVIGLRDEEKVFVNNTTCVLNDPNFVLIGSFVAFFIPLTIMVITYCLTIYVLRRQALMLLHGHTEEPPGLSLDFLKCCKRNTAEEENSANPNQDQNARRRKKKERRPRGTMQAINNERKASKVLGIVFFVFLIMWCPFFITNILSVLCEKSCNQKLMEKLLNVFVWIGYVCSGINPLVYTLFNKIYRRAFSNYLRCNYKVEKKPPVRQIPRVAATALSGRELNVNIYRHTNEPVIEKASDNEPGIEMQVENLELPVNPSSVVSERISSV

Sequence of Estrogen receptor beta (Q92731 whole entry): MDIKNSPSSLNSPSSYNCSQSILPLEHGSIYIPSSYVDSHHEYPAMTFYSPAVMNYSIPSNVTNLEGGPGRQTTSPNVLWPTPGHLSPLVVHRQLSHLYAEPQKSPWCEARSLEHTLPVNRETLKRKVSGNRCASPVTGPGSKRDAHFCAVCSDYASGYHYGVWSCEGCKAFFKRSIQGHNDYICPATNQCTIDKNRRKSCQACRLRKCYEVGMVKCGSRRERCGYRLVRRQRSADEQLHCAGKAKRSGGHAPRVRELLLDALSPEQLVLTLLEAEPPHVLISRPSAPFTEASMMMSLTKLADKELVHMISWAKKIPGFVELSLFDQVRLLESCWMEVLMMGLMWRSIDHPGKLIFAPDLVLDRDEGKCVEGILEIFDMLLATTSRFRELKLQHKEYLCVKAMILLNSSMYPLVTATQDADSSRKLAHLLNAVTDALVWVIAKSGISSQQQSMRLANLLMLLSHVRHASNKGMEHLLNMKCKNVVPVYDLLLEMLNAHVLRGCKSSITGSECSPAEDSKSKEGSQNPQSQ

CCOC(=O)C1=C(C)NC(C)=C(C(=O)OC)C1c1cccc([N+](=O)[O-])c1 (stereo not drawn) [NITRENDIPINE]
Not Active: IC50 (Estrogen receptor beta) | IC50 [1] | IC50 (Cytochrome P450 3A4) | Ki (Cytochrome P450 3A4) | IC50 [2] | IC50 [3] | IC50 [4]

O=C1CC[C@H](N2C(=O)c3ccccc3C2=O)C(=O)N1
Not Active: IC50 (Estrogen receptor beta) | IC50 [1] | IC50 (Cytochrome P450 3A4) | Ki (Cytochrome P450 3A4) | IC50 [2] | IC50 [3] | IC50 [4]

CC(C)Cc1ccc(C(C)C(=O)O)cc1 (stereo not drawn) [IBUPROFEN]
Not Active: IC50 (Estrogen receptor beta) | IC50 [1] | IC50 (Cytochrome P450 3A4) | Ki (Cytochrome P450 3A4) | IC50 [2] | IC50 [3] | IC50 [4]

CCCCN1CCCCC1C(=O)Nc1c(C)cccc1C.Cl (stereo not drawn) [BUPIVACAINE HYDROCHLORIDE]
Not Active: IC50 (Estrogen receptor beta) | IC50 [1] | IC50 (Cytochrome P450 3A4) | Ki (Cytochrome P450 3A4) | IC50 [2] | IC50 [3] | IC50 [4]
